Two substances from patent US10765751B2, “pH sensitive carrier and preparation method thereof, and pH sensitive drug and pH sensitive drug composition each containing the carrier, and method for treating or preventing diseases using the same” (TERUMO KABUSHIKI KAISHA, priority 2012, dated 2020) can be followed below.

Assay [1] relates to RAW cells. Nature of the assay: Evaluation of cytosolic delivery where pH sensitive carrier and physiologically active substance were used independently. It is filed as cell-based. As to conditions: 30 μg/mL peptide-FITC or OVA-FITC, carrier added separately (160 nmol pH sensitive compound, 100 nmol amphipathic substance); FIG. 22. Here is the method: On the previous day, RAW cells were spread on a matsunami glass bottom dish and cultured with 10% FBS-containing MEM. After rinsing with PBS, MEM was added, followed by a one hour incubation. 1900 μL of MEM containing fluorescence-labeled peptide-FITC or fluorescence-labeled OVA-FITC at a concentration of 30 μg/mL was prepared and substituted with the culture medium. Moreover, a solution of 100 μL of a pH sensitive carrier was added, followed by 16 to 20 hours of incubation in the culture medium in such a state that both were mixed. It was already confirmed that the fluorescence-labeled peptide-FITC and fluorescence-labeled OVA-FITC were each not supported with the pH sensitive carrier in a mixed state with a pH sensitive carrier-containing solution. After rinsing with PBS and three hours post-incubation with 2 mL of fresh MEM, the cells were rinsed with PBS, followed by substitution with phenol red-free DMEM and observation through a fluorescence microscope. The culture was carried out by use of an incubator (MCO20AIC) set at 5% CO2 and 37° C. and the cells were observed through a fluorescence microscope (Axiovert 200M—soft: Axio vision 3.0—light source: Fluo Arc).

Assay [2] relates to RAW cells. Description: Cytosolic delivery of β-gal. The format is cell-based. Conditions: 16 to 20 hours incubation, three hours post-incubation; FIG. 21. Here is the method:
Using PBS passed through a 0.22 μm filter, there was prepared a 1.4 mg/mL of β-gal solution. […] On the day before charge, the RAW cells were spread on a matsunami glass bottom dish and cultured, and the cells were rinsed with PBS immediately before charge. The culture was carried out by use of an incubator (MCO 20 AIC) set at 5% CO2 and 37° C. and a 10% FBS-containing MEM medium. After substitution with 1900 μL of a fresh 10% FBS-containing MEM medium, 100 μL of the respective samples was charged, followed by 16 to 20 hours incubation. The cells were rinsed at least three times with PBS. Thereafter, 2 mL of a fresh 10% FBS-containing MEM medium was added, following by three hours post-incubation. The cells were rinsed with PBS, followed by staining the cells with use of a β-Galactosidase Staining Kit (purchased from Takara Bio Inc.), and observing the cells through a microscope (Axiovert 200M—soft: Axio vision 3.0). The staining was carried out in accordance with the recommendation of the kit.

Take “fluorescence-labeled OVA-FITC: FITC fluorescence-labeled OVA model protein”: the “localisation of fluorescence-labeled peptide-FITC or OVA-FITC in cells (cytosolic delivery)” value in assay [1] is given as “remained in the endosome”.
For β-D-galactosidase [β-gal alone], the “staining of cells by β-gal enzymatic activity (cytosolic delivery)” value in assay [2] is “not stained”.
